CCOC(=O)[C@@H]1CSCN1.Cl
solubility (mole fraction)
Settings | 283.15 K | 288.15 K | 293.15 K | 298.15 K | 303.15 K | 313.15 K | 323.15 K
in 1,4-dioxane | – | 0.000476 | 0.000593 | – | 0.000872 | 0.00156 | 0.00266
in 2-butanone | 4.1e-05 | – | 0.000107 | – | 0.00018 | 0.000298 | 0.000434
in acetone | 4e-05 | – | 0.000116 | – | 0.000348 | 0.000859 | 0.00187
in acetonitrile | 0.000408 | – | 0.00125 | – | 0.00252 | 0.00451 | 0.00664
in dichloromethane | 0.00638 | 0.01 | 0.0128 | 0.0157 | 0.0187 | – | –
in ethanol | 0.00937 | – | 0.0125 | – | 0.0193 | 0.0306 | 0.0473
in ethyl acetate | 0.000103 | – | 0.000161 | – | 0.000215 | 0.000273 | 0.000345
in isobutanol | 0.00153 | – | 0.00257 | – | 0.00495 | 0.00811 | 0.0117
in isopropanol | 0.00271 | – | 0.00323 | – | 0.00492 | 0.00807 | 0.0131
in methanol | 0.0465 | – | 0.0619 | – | 0.0835 | 0.112 | 0.142
in methyl acetate | 3.8e-05 | – | 7e-05 | – | 0.000126 | 0.000192 | 0.000276
in n-butanol | 0.00141 | – | 0.00427 | – | 0.00829 | 0.0124 | 0.017
in n-propanol | 0.00489 | – | 0.0078 | – | 0.012 | 0.0186 | 0.0298
in sec-butanol | 0.000766 | – | 0.00103 | – | 0.00182 | 0.00365 | 0.00936
in water | 0.0825 | – | 0.104 | – | 0.124 | 0.148 | 0.188

Reference: BigSolDB 2.1
